Reference: patent EP4667476A1, “NOVEL MITOCHONDRIA-TARGETING COMPOUNDS” (THE CATHOLIC UNIVERSITY OF KOREA INDUSTRY-ACADEMIC …, priority 2023, dated 2024)

Tested on: PD-L1
Experiment: PD-L1 expression in gastric cancer cells by flow cytometer
Format: cell-based
Conditions: AGS; metformin at a concentration 50 times higher than that of JH-001 (FIG. 8)
Protocol: After treating an AGS cell line, a gastric cancer cell line, with JH-001 for each concentration, the expression of PD-L1, an immunocompromised marker, was confirmed using a flow cytometer. […] In addition, metformin, known as a mitochondria-targeting drug, was treated at a concentration 50 times higher than that of JH-001 and the expression level of PD-L1 was confirmed. As a result, it was confirmed that JH-001 according to the present disclosure inhibited PD-L1 expression about 2 times higher than metformin treatment, even though JH-001 was treated at a much lower concentration (FIG. 8).

CN(CCCNC(=O)CCCCC[P+](c1ccccc1)(c1ccccc1)c1ccccc1)C(=N)NC(=N)N [JH-001, (6-((3-(3-carbamimidoyl-1-methylguanidino)propyl)amino)-6-oxohexyl)triphenylphosphonium]
inhibition of PD-L1 expression relative to metformin treatment: about 2 times
